The values that follow come from patent US20190144499A1, “PHENYL P[…], AND MANUFACTURING METHOD AND PHARMACEUTICAL APPLICATION THEREOF” (Jiangsu Hengrui Medicine Co., Ltd., priority 2016, published 2019).

Structures are written as SMILES.

A short description of data set [1]: Pharmacokinetics assay in rats after intravenous administration. It is filed as in vivo. The conditions noted are these: both sexes, Sprague-Dawley, rat, plasma, SD rats, 1 mg/kg. Here is the method: Rats were used as test animals. The drug concentration in plasma at different time points was determined by LC/MS/MS after intravenous administration of the compounds of Examples 2, 5 and 8 to the rats. The pharmacokinetic behavior of the compounds of the present invention was studied and evaluated in SD rats.
12 Sprague-Dawley (SD) rats, half male and half female, were purchased from SINO-BRITISH SIPPR/BK LAB. ANIMAL LTD., CO, with License No.: SOCK (Shanghai) 2008-0016.
The appropriate amount of the test compounds was weighed, and added with 5% 5% DMSO+5% PEG400+90% normal saline successively.
After an overnight fast, 12 SD rats, half male and half female, were divided into 3 groups equally, and administered intravenously at a dose of an administration volume of 5 mL/kg.
In the venous group, blood (0.2 mL) was taken from the orbital sinus before administration and 0.25, 0.5, 1.0, 2.0, 4.0, 8.0, 11.0 and 24.0 hours after administration. The samples were stored in heparinized tubes, and centrifuged for 10 minutes at 3,500 rpm to separate the blood plasma. The plasma samples were stored at −20° C.
The concentration of the test compounds in SD rat plasma after intravenous administration was determined by LC-MS/MS.

Data set [2] is described as follows: Pharmacokinetics assay in dogs after intravenous administration. The note with it: male, dog, plasma, Beagle dogs, 0.3 mg/kg. The class given is in vivo. Here is the method: Beagle dogs were used as test animals. The drug concentration in plasma at different time points was determined by LC/MS/MS after intravenous administration of the compound of Example 5 to the Beagle dogs. The pharmacokinetic behavior of the compound of the present invention was studied and evaluated in Beagle dogs.
3 Beagle dogs in one group, male, were purchased from Medicilon Pharmaceutical Technology (Shanghai) Co., Ltd.
The appropriate amount of the test compound was weighed, and added with 100% normal saline.
After an overnight fast, 3 Beagle dogs in one group, male, were administered intravenously at a dose of an administration volume of 2 mL/kg.
In the venous group, blood (1 mL) was taken from the jugular vein before administration and 5 minutes, 15 minutes, 0.5, 1.0, 2.0, 4.0, 8.0, 12.0 and 24.0 hours after administration. The samples were stored in heparinized tubes, and centrifuged for 10 minutes at 3,500 rpm to separate the blood plasma. The plasma samples were stored at −80° C.
The concentration of the test compound in Beagle dog plasma after intravenous administration was determined by LC-MS/MS.

The test system of data set [3] is carrageenan inflammatory pain model in rats. Nature of the data set: Carrageenan-induced inflammatory pain in rats, plantar tenderness test (electronic Von Frey). The class given is in vivo, Wistar rats. The conditions noted are these: for threshold of tenderness: 30 minutes before detection, 4 hours after carrageenan, model group 7.6 g, blank control about 20 g. Here is the method: A carrageenan inflammatory pain model in rats was established to evaluate the therapeutic effect of KOR agonists on inflammatory pain in rats.
Male Wistar rats were purchased from Shanghai Slac Laboratory Animal Co., Ltd. (Shanghai, China, Certificate No. 2015000513408, License No. SCXK (Shanghai) 2012-0002). The rats were 150-180 g, and fed at 5/cage, in a condition of 12/12 hours light/dark cycle adjustment, constant temperature of 23±1° C., humidity of 50˜60%, and free access to food and water. After purchase, the animals adapted to this condition for 7 days before the experiment was started.
1% λ-Carrageenan was placed in physiological saline, and stirred overnight to form a jelly-like suspension.
The experimental method was modified in accordance with the method of Document 1 (Kazunari Nakao et al.). Before inflammatory pain experiment, rats were randomly divided into the following groups according to body weight: blank control group, model group, Example 5-0.1 mg/kg group, and Example 5-0.3 mg/kg group. There were 8 rats in each group. Inflammatory pain model was made in Wistar rat footpads that were subcutaneously injected with 1% carrageenan (100 μl). After 4 hours, the rats were subjected to a plantar tenderness test to evaluate the mechanical pain threshold. Single tail vein administration of the drug (1 ml/kg) was carried out 30 minutes before detection, and the control group and the model group were given corresponding solvents.
Electronic Von Frey: UGO BASILE, type 38450.
The experimental data were expressed as mean±standard deviation (S.D.). Statistical comparisons were performed using the excel software t test.

Data set [4] has as its target T1, human KOR (h-KOR) receptors (Homo sapiens, UniProt P41145).
T1 construct: expressed in transfected cells
The data set is described as follows: h-KOR agonist activity test (cAMP/CRE-luciferase reporter in HEK293/h-KOR/CRE cells). The class given is cell-based. The conditions noted are these: Forskolin, 4 hours, luciferase chemiluminescence, read-out: EC50 on agonizing h-KOR receptor and affecting cAMP levels. From the text: The objective of this experiment is to determine the agonistic effect of the compounds of the present invention on human KOR (h-KOR) receptors, and to evaluate the in vitro activity of the compounds according to the values of EC50.
The compounds of the present invention can activate h-KOR receptor, thereby reducing intracellular cAMP levels. The second messenger cAMP enters the nucleus and binds to the CRE of the DNA, thereby initiating the expression of the downstream luciferase. Luciferase reacts with its substrate to emit fluorescence, and the measured fluorescence signals reflect the agonistic activity of the compounds.
The activity of the test example compounds on agonizing h-KOR and affecting downstream cAMP levels was tested by the following method.
KOR/pcDNA3.1 (+) and CRE/pGL4.29 were transferred into HEK293 cells. G418 and hygromycin were added into the culture medium, and HEK293/KOR/CRE monoclonal cell lines were screened in a 96-well cell culture plate.
HEK293/h-KOR/CRE monoclonal cells were cultured in a DMEM/high glucose medium (10% FBS, 1 mg/ml G418, 200 μg/ml hygromycin, mixed uniformly), and passaged every 3 days. On the day of the experiment, a cell suspension was prepared with a fresh cell medium, added to a 96 well plate (BD, #356692) with 20,000 cells/well, and incubated in 5% CO2 at 37° C. On the second day, the compound was dissolved in pure DMSO at a concentration of 20 mM, then formulated with DMSO to a first concentration of 200 nM and diluted in 3 fold concentration gradient to 8 concentrations. 90 μl of DMSO were added to blank and control wells. The compound solution was diluted 20-fold with DMEM/hyperglucose (SH30243.01B, Hyclone) medium containing […]. The cell culture plates inoculated on the first day were taken out, and 10 μl of the diluted drug or the control (0.5% DMSO) was added to each well. The plate was gently shaken, and placed at 37° C. for 4 hours. In a 96-well cell culture plate, 100 μl of luciferase assay solution (Promega, # E6110) was added to each well. The plate was placed for 5 minutes at room temperature. The chemiluminescence value was measured using Victor 3.0. The EC50 values of the compounds were calculated using Graphpad Prism software based on each concentration of the compound and the corresponding signal value.
The activity of the compounds of the present invention on agonizing h-KOR and affecting downstream cAMP levels was determined by the above test, and the EC50 values are shown in Table 1.1.
In general terms: Reporter assays use an easily measured gene product as a stand-in for the process of interest.

Where [5] appears, read: read-out: Apparent Distribution Volume Vz.
Setting [6] is: read-out: Half-Life t1/2 (converted).
Setting [7] is: read-out: Mean Residence Time MRT.

T1 sequence (P41145 whole entry): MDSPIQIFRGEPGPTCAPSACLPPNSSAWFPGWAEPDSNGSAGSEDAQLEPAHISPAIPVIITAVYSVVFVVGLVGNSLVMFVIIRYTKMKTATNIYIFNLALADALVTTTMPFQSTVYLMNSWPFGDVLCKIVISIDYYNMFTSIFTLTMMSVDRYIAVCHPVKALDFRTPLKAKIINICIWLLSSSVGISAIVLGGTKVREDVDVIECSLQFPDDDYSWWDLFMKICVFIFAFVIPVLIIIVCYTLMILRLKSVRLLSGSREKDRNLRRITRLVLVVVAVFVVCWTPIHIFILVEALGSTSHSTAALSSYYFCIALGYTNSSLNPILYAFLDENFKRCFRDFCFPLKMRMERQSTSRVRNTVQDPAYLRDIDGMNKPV

Regarding `CC(C)C[C@@H](NC(=O)[C@@H](Cc1ccccc1)NC(=O)CNC[C@H](C)c1ccccc1)C(=O)N[C@H](CCCCN)C(=O)N1CCC(N)(C(=O)O)CC1` [Example 5, 4-amino-1-((2R,5R,8R,14R)-2-(4-aminobutyl)-8-benzyl-5-isobutyl-4,7,10-trioxo-14-phenyl-3,6,9,12-tetraazapentadecan-1-oyl)piperidine-4-carboxylic Acid], the figures for the Vd in data set [1] (setting [5]) and in data set [2] (setting [5]) were 0.41 ± 0.112 L/kg and 0.296 ± 0.019 L/kg, respectively. Besides, the AUC amounted to 1700 ± 363 ng·h/mL in data set [1] (read-out: Area Under Curve AUC) and 1980 ± 165 ng·h/mL in data set [2] (read-out: Area Under Curve AUC). For the same molecule, the clearance in data set [1] (read-out: Clearance CL) was determined as 10.1 ± 1.8 mL/min/kg; in data set [2] (read-out: Clearance CL), 2.54 ± 0.21 mL/min/kg. The half-life in data set [1] (setting [6]) was 28.1 ± 5.52 min; in data set [2] (setting [6]), 80.4 ± 2.4 min. Also, the MRT in data set [1] (setting [7]) is 33.4 ± 7.44 min; in data set [2] (setting [7]), 85.8 ± 4.8 min. Also, the “increase of threshold of tenderness compared with the model group” value in data set [3] (0.1 mg/kg i.v. once) worked out at 79.5%; in data set [3] (0.3 mg/kg i.v. once), 204.5%. In addition, the threshold of tenderness in data set [3] (0.1 mg/kg i.v. once) turned out to be 13.7 g; in data set [3] (0.3 mg/kg i.v. once) it was 23.2 g. Further, the EC50 in data set [4] is 1 pM.

As usually defined, the AUC is the area under the concentration-time curve, a measure of exposure. The clearance is the volume of plasma or blood freed of the substance per unit of time. By MRT is commonly meant the average time that molecules of a dose stay in the body. Usually EC50 stands for the concentration at which the effect is half-maximal.
